Reference: BigSolDB 2.1

Cl.N[C@@H](Cc1ccccc1)C(=O)OCc1ccccc1
solubility (mole fraction)
Settings | 283.15 K | 288.15 K | 293.15 K | 298.15 K | 303.15 K | 313.15 K | 323.15 K
in acetone | 8e-05 | – | 0.000134 | – | 0.000224 | 0.000347 | 0.000511
in acetonitrile | 5.4e-05 | 0.000115 | 0.000188 | 0.000262 | 0.000365 | – | –
in ethanol | 0.00311 | – | 0.00396 | – | 0.00491 | 0.00625 | 0.00832
in ethyl acetate | – | 2.6e-05 | 3.8e-05 | – | 6.3e-05 | 0.000116 | 0.000181
in isobutanol | – | 0.00056 | 0.000879 | – | 0.00121 | 0.00174 | 0.00256
in isopropanol | 0.000417 | – | 0.000588 | – | 0.000882 | 0.00123 | 0.00178
in methanol | 0.0158 | – | 0.0186 | – | 0.0223 | 0.0274 | 0.0324
in n-butanol | 0.0011 | – | 0.0015 | – | 0.00191 | 0.00263 | 0.0039
in n-pentanol | 0.000703 | – | 0.00103 | – | 0.00158 | 0.00213 | 0.00307
in n-propanol | 0.00168 | – | 0.00203 | – | 0.00281 | 0.00386 | 0.00515
in water | 0.000969 | – | 0.0012 | – | 0.0015 | 0.00197 | 0.00266
